Assay: flavor descriptors of compounds tasted in salt water, chicken broth, IMP/MSG and NaCl/IMP/MSG solutions

| SMILES | flavor descriptors, NaCl 0.1% IMP 0.00359 g/L / MSG 0.0508 g/L (compound 10 ppm in NaCl/IMP/MSG solution) | flavor descriptors, IMP 0.00359 g/L / MSG 0.0508 g/L (compound 20 ppm in IMP/MSG solution) | flavor descriptors, Chicken Broth College Inn 50% reduced Na; Fat free (compound 10 ppm in chicken broth) |
| --- | --- | --- | --- |
| C=CCCCCCCCCCCCC(O)CC(O)COC(C)=O (stereo not drawn) [2,4-dihydroxy-16-heptadecen-1-yl acetate] | Very umami | Nice umami | – |
| C#CCCCCCCCCCCCC(O)CC(O)COC(C)=O (stereo not drawn) [2,4-Dihydroxy-16-heptadecyn-1-yl acetate, 2,4-dihydroxy-16-heptadecyn-1-yl acetate] | – | – | Bitter |
